Converted amounts (≈) assume the structure as drawn. Read-outs that look alike come from different tables or passages of the source. *1 amine or outer side, *2 acyl side, *3 side chain or, on linkers, in order; H or OH if unused. Where a SMILES comes first, the peptide text is derived from it. Bridges are numbered along the chain shown (N, C = ends). [ ]: non-standard residue; d: D form. The star is where a group is joined. pTerphenylCO(4''-OnC5H11) = CCCCCOc1ccc(-c2ccc(-c3ccc(C(=O)*)cc3)cc2)cc1; Orn(4R-OH,5R-OH) = O=C([C@H](C[C@@H](O)[C@@H](O)N[*:3])N[*:1])[*:2]; hTyr(3S-OH,4S-OH) = N[C@H](C(=O)O)[C@H](O)[C@@H](O)c1ccc(O)cc1; Pro(3S-OH,4S-Me) = C[C@H]1CN[C@H](C(=O)O)[C@H]1O; Hyp = O=C(O)[C@@H]1C[C@@H](O)CN1
Columns and labels:
[1] = system: Aspergillus ochraceus ATCC 96919; experiment: CLSI broth microdilution (M38-A2) MEC/MIC; assay type: cell-based; conditions: 48 h, stunted hyphal growth
Experimental: (§1) All yeast and mold isolates were obtained from the American Type Culture Collection (ATCC). Isolates were plated on an agar medium to verify purity, and single colonies were picked. Aspergillus isolates were resubcultured on potato dextrose slants and incubated for 7 days at 35°C. Candida isolates were streaked on SDA plates and incubated for 24 h at 35°C. RPMI 1640 medium (HyClone Laboratories, Logan, UT) and the inoculum for each organism were prepared according to Clinical and Laboratory Standards Institute (CLSI) guidelines ([27][–][29]). Stock solutions for all test articles were prepared in 100% dimethyl sulfoxide (DMSO). Susceptibility testing was performed using CLSI broth microdilution methods for Candida (M27-A3) and Aspergillus (M38-A2). Amphotericin B was tested at a range of 0.06 to 64 μg/ml; all other antifungal agents were tested at 0.015 to 16 μg/ml. Plates were incubated at 35°C and were read from the bottom using a plate viewer after 24 and 48 h for Candida and after 48 h for Aspergillus. MIC values are reported as the lowest drug concentration to yield a 50% reduction in the growth of Candida species tested compared to the control well. Minimum effective concentration (MEC) values are reported as the lowest drug concentration to yield the stunted hyphal growth of Aspergillus species tested compared to that of the control well.

[2] = system: Aspergillus niger ATCC 16888; experiment: CLSI broth microdilution (M38-A2) MEC/MIC; assay type: cell-based; conditions: 48 h, stunted hyphal growth
Experimental: as §1

[3] = system: Aspergillus candidus ATCC 13686; experiment: CLSI broth microdilution (M38-A2) MEC/MIC; assay type: cell-based; conditions: 48 h, stunted hyphal growth
Experimental: as §1

[4] = system: Aspergillus fumigatus ATCC 204305; experiment: CLSI broth microdilution (M38-A2) MEC/MIC; assay type: cell-based; conditions: 48 h, stunted hyphal growth
Experimental: as §1

[5] = system: Aspergillus flavus ATCC 22546; experiment: CLSI broth microdilution (M38-A2) MEC/MIC; assay type: cell-based; conditions: 48 h, stunted hyphal growth
Experimental: as §1

[6] = system: Aspergillus fumigatus ATCC MYA-3626; experiment: CLSI broth microdilution (M38-A2) MEC/MIC; assay type: cell-based; conditions: 48 h, stunted hyphal growth
Experimental: as §1

Candida albicans R303 = experiment: mouse model of disseminated candidiasis, fungal burden in kidneys; assay type: in vivo; conditions: neutropenic CD-1 mice, 0.5, 1.5 or 4.5 mg/kg 2 h after inoculation, kidneys at 24 h
Experimental: Candida albicans R303 was grown on Sabouraud dextrose agar (SDA) plates for 24 h at 35°C. Colonies were transferred to phosphate-buffered saline (PBS) and diluted to 3.8 × 10^5 CFU/ml. Female CD-1 mice (Charles River Laboratories, Portage, MI) were rendered neutropenic via injection with cyclophosphamide (150 mg/kg) 5 days and 2 days prior to inoculation. Each animal was infected by injecting 0.1 ml of inoculum into the tail vein. In the treatment groups, animals received 0.5, 1.5, or 4.5 mg/kg of test article 2 h after inoculation. Two groups of untreated, infected controls were used to evaluate fungal burden: at 2 h when test articles were administered in the treatment groups and at 24 h when the treatment groups were sacrificed. Kidneys were harvested at 2 h in one untreated control group and at 24 h in all other groups. The kidneys were homogenized in 2 ml of sterile phosphate-buffered saline, and 0.1-ml aliquots were spread on SDA plates and incubated at 35°C overnight. Fungal burden was determined based on the log10 C. albicans CFU counts from paired kidneys. Data were analyzed using a one-way analysis of variance (ANOVA) and the Dunnett multiple comparisons test comparing the test articles to the infected control group (GraphPad InStat version 3.1; GraphPad Software, San Diego, CA).

[7] = system: Aspergillus clavatus ATCC 10058; experiment: CLSI broth microdilution (M38-A2) MEC/MIC; assay type: cell-based; conditions: read at 68 h, stunted hyphal growth
Experimental: as §1, with “Plates were incubated at 35°C and were read from the bottom using a plate viewer after 24 and 48 h for Candida and after 48 h for Aspergillus.” left out

[8] = system: Candida parapsilosis ATCC 22019; experiment: CLSI broth microdilution (M27-A3) MIC; assay type: cell-based; conditions: Lodderomyces parapsilosis, ATCC22019, 50% reduction in growth
Experimental: as §1

[9] = system: Candida lusitaniae ATCC 34134; experiment: CLSI broth microdilution (M27-A3) MIC; assay type: cell-based; conditions: Clavispora lusitaniae
Experimental: as §1

[10] = system: Candida krusei ATCC 14243; experiment: CLSI broth microdilution (M27-A3) MIC; assay type: cell-based; conditions: Pichia kudriavzevii, ATCC14243, 50% reduction in growth
Experimental: as §1

[11] = system: Candida guilliermondii ATCC 34134; experiment: CLSI broth microdilution (M27-A3) MIC; assay type: cell-based; conditions: Meyerozyma guilliermondii, ATCC34134, 50% reduction in growth
Experimental: as §1

[12] = system: Candida glabrata ATCC 90030; experiment: CLSI broth microdilution (M27-A3) MIC; assay type: cell-based; conditions: Nakaseomyces glabratus, ATCC90030, 50% reduction in growth, read-out: MIC
Experimental: as §1

[13] = system: Candida tropicalis ATCC 90874; experiment: CLSI broth microdilution (M27-A3) MIC; assay type: cell-based; conditions: 50% reduction in growth
Experimental: as §1

[14] = system: Candida albicans ATCC 90028; experiment: CLSI broth microdilution (M27-A3) MIC; assay type: cell-based; conditions: 50% reduction in growth
Experimental: as §1

Aspergillus spp. = experiment: CLSI broth microdilution (M38-A2) MEC, whole panel; assay type: cell-based; conditions: 48 h, summary of Table 3
Experimental: as §1

[15] = single-dose pharmacokinetics in beagle dogs; conditions: male, dog, in vivo, iv
Experimental: Four male, nonnaive beagle dogs received a single i.v. infusion (1.4 mg/kg) of test article over 10 min via a catheter placed in the cephalic vein. Blood draws (1.0 ml) were taken at 0.083, 0.33, 0.75, 1.5, 4.5, 12, 24, and 48 h. An additional blood draw at 72 h was obtained for CD101. Blood draws were taken from the jugular vein and were collected into K3 EDTA tubes. Following blood collection, the samples were immediately inverted several times and were held on wet ice pending centrifugation. The samples were centrifuged within ∼30 min of collection under refrigeration (∼5°C for ∼10 min at ∼2,000 g) to obtain plasma. The plasma samples were frozen immediately on dry ice after separation and were stored at approximately −70°C until analysis. Levels of test article in the plasma samples were measured by quantitative liquid chromatography-tandem mass spectrometry (LC-MS/MS) analysis compared to a calibration curve and an internal standard. Pharmacokinetic parameters were calculated from the plasma concentration-time data using standard noncompartmental methods and utilizing WinNonlin analysis software.

Compound | MEC [1] [µg/mL] | MEC [2] [µg/mL] | MEC [3] [µg/mL] | MEC [4] [µg/mL] | MEC [5] [µg/mL] | MEC [6] [µg/mL] | MEC [7] [µg/mL] | MIC ([8]; 24 h) [µg/mL] | MIC ([8]; 48 h) [µg/mL] | MIC ([10]; 24 h) [µg/mL] | MIC ([10]; 48 h) [µg/mL] | MIC ([11]; 24 h) [µg/mL] | MIC ([11]; 48 h) [µg/mL] | MIC ([12]; 24 h) [µg/mL] | MIC ([12]; 48 h) [µg/mL] | MIC ([13]; ATCC90874, 24 h) [µg/mL] | MIC ([13]; ATCC90874, 48 h) [µg/mL] | MIC ([14]; ATCC90028, 24 h) [µg/mL] | MIC ([14]; ATCC90028, 48 h) [µg/mL] | MEC values against all Aspergillus species tested (Aspergillus spp.) | other results
CCCCCOc1ccc(-c2ccc(-c3ccc(C(=O)N[C@H]4C[C@@H](O)[C@@H](NCC[N+](C)(C)C)NC(=O)[C@@H]5[C@@H](O)[C@@H](C)CN5C(=O)[C@H]([C@@H](C)O)NC(=O)[C@H]([C@H](O)[C@@H](O)c5ccc(O)cc5)NC(=O)[C@@H]5C[C@@H](O)CN5C(=O)[C@H]([C@@H](C)O)NC4=O)cc3)cc2)cc1 [Compound 6] | 0.03 | ≤0.015 | ≤0.015 | ≤0.015 | ≤0.015 | ≤0.015 | 0.03 | 0.25 | 0.5 | 0.03 | 0.03 | 0.5 | 1 | 0.03 | 0.03 | ≤ 0.015 | ≤ 0.015 | 0.03 | 0.03 | below 0.03 μg/ml | reductions in fungal burden vs infected control (statistical significance) (Candida albicans R303): statistically significant (P < 0.01) reductions in fungal burden at all doses; MIC ([9]; ATCC34134, 24 h, 50% reduction in growth, read-out: MIC): 0.25 µg/mL; MIC ([9]; ATCC34134, 48 h, 50% reduction in growth, read-out: MIC): 0.25 µg/mL; Vd ([15]; beagle, 1.4 mg/kg): 0.874 L/kg; half-life ([15]; beagle, 1.4 mg/kg): 27.6 h
CCCCCOc1ccc(-c2ccc(-c3ccc(C(=O)N[C@H]4C[C@@H](O)[C@@H](O)NC(=O)[C@@H]5[C@@H](O)[C@@H](C)CN5C(=O)[C@H]([C@@H](C)O)NC(=O)[C@H]([C@H](O)[C@@H](O)c5ccc(O)cc5)NC(=O)[C@@H]5C[C@@H](O)CN5C(=O)[C@H]([C@@H](C)O)NC4=O)cc3)cc2)cc1 [Anidulafungin, anidulafungin] ({pTerphenylCO(4''-OnC5H11)}-[Orn(4R-OH,5R-OH)]T[Hyp][hTyr(3S-OH,4S-OH)]T[Pro(3S-OH,4S-Me)]; lactam 1-C) | 0.03 | ≤0.015 | ≤0.015 | ≤0.015 | ≤0.015 | ≤0.015 | ≤0.015 | 0.5 (≈ 0.438 µM) | 0.5 (≈ 0.438 µM) | 0.03 (≈ 0.0263 µM) | 0.06 (≈ 0.0526 µM) | 1 (≈ 0.877 µM) | 2 (≈ 1.75 µM) | 0.03 (≈ 0.0263 µM) | 0.03 (≈ 0.0263 µM) | ≤ 0.015 | ≤ 0.015 | ≤ 0.015 | ≤ 0.015 | below 0.03 μg/ml | MIC ([9]; ATCC34134, 24 h): 0.125 µg/mL (≈ 0.11 µM); MIC ([9]; ATCC34134, 48 h): 0.125 µg/mL (≈ 0.11 µM); clearance ([15]; beagle dogs, single i.v. 1.4 mg/kg, 10-min slow bolus): 0.783 mL/min/kg; Vd ([15]; beagle dogs, single i.v. 1.4 mg/kg, 10-min slow bolus, read-out: V (volume of distribution)): 0.779 L/kg; half-life ([15]; beagle dogs, single i.v. 1.4 mg/kg, 10-min slow bolus, read-out: t1/2 (converted)): 11.6 h
